pIC50, pKi: −log10 of the molar value. Converted amounts (≈) assume the structure as drawn. The source made the active and inactive calls. The calls are words filed in the database; no cut-off is given here.
What was measured:
[1] = biological target: T1, Deubiquitinase and deneddylase Dub1 (Chlamydia trachomatis serovar L2 (strain ATCC VR-902B / DSM 19102 /434/Bu), UniProt B0B9A0); experiment: Inhibition of recombinant Chlamydia trachomatis DUB1 (130 to 401 residues) using Ub-Rh110Gly as fluorogenic substrate incubated for 60 mins by enzymatic analysis; details: for pIC50: read-out: IC50
T1 sequence (B0B9A0 whole entry): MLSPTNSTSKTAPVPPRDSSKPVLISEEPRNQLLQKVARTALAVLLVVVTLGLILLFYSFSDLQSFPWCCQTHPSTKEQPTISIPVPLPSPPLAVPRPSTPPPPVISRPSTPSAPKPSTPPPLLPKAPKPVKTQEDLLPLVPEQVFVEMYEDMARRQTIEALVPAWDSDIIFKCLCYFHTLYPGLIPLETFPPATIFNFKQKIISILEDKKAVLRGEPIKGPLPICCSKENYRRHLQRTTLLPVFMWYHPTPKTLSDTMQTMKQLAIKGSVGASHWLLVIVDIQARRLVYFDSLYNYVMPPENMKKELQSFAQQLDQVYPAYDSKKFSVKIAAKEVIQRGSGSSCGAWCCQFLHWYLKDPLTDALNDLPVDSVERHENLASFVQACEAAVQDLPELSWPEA

HEp-2 = experiment: Cytotoxicity against human HEp-2 cells assessed as reduction in cell viability at 4 to 256 ug/mL measured after 20 hrs by XTT assay; type: toxicity, cell-based; details: hep-2, 20 h, dose 4-256 µg/ml
[2] = biological target: T2, Deubiquitinase and deneddylase Dub1 (Chlamydia trachomatis serovar L2 (strain ATCC VR-902B / DSM 19102 /434/Bu)) (UniProt B0B9A0); experiment: Inhibition of recombinant Chlamydia trachomatis DUB1 (130 to 401 residues) using Ub-Rh110Gly as fluorogenic substrate incubated for 60 mins by enzymatic analysis relative to control
T2 sequence (whole entry): T1 sequence (B0B9A0 whole entry)

HeLa = experiment: Cytotoxicity against human HeLa cells assessed as cell viability at 4 to 256 ug/mL measured after 20 hrs by XTT assay; type: toxicity, cell-based; details: dose 4-256 µg/ml
[3] = biological target: T2, Deubiquitinase and deneddylase Dub1 (Chlamydia trachomatis serovar L2 (strain ATCC VR-902B / DSM 19102 /434/Bu)); experiment: Inhibition of recombinant Chlamydia trachomatis DUB1 (130 to 401 residues) using Ub-Rh110Gly as fluorogenic substrate at highest concentration incubated for 60 to 360 mins by enzymatic analysis; details: time 60-360 min
[4] = biological target: T2, Deubiquitinase and deneddylase Dub1 (Chlamydia trachomatis serovar L2 (strain ATCC VR-902B / DSM 19102 /434/Bu)); experiment: Non-covalent inhibition of recombinant Chlamydia trachomatis DUB1 (130 to 401 residues) using Ub-Rh110Gly as fluorogenic substrate incubated for 10 to 360 mins by enzymatic analysis; details: time 10-360 min
[5] = biological target: T1, Deubiquitinase and deneddylase Dub1; experiment: Inhibition of recombinant Chlamydia trachomatis DUB1 (130 to 401 residues) using Ub-Rh110Gly as fluorogenic substrate incubated for 20 mins by enzymatic analysis
Chlamydia trachomatis = experiment: Anti-chlamydial activity against Chlamydia trachomatis serovar L2 infected in human HEp-2 cells assessed as inhibition of chlamydial inclusion incubated for 16 hrs by Alexa488/DAPI staining based immunofluorescence assay; type: functional, organism-based; details: serovar L2, HEp-2, 16 h
[6] = biological target: T1, Deubiquitinase and deneddylase Dub1; experiment: Binding affinity to recombinant Chlamydia trachomatis DUB1 (130 to 401 residues) assessed as inhibition constant using Ub-Rh110Gly as fluorogenic substrate incubated for 360 mins by Michaelis-Menten analysis
[7] = biological target: T1, Deubiquitinase and deneddylase Dub1; experiment: Inhibition of recombinant Chlamydia trachomatis DUB1 (130 to 401 residues) using Ub-Rh110Gly as fluorogenic substrate incubated for 2 mins by enzymatic analysis
[8] = biological target: T1, Deubiquitinase and deneddylase Dub1; experiment: Inhibition of recombinant Chlamydia trachomatis DUB1 (130 to 401 residues) using Ub-Rh110Gly as fluorogenic substrate incubated for 360 mins by enzymatic analysis
[9] = biological target: T2, Deubiquitinase and deneddylase Dub1 (Chlamydia trachomatis serovar L2 (strain ATCC VR-902B / DSM 19102 /434/Bu)); experiment: Binding affinity to recombinant Chlamydia trachomatis DUB1 (130 to 401 residues) assessed as Kinact/Ki ratio using Ub-Rh110Gly as fluorogenic substrate incubated for 360 mins by Michaelis-Menten analysis
[10] = biological target: T2, Deubiquitinase and deneddylase Dub1 (Chlamydia trachomatis serovar L2 (strain ATCC VR-902B / DSM 19102 /434/Bu)); experiment: Binding affinity to recombinant Chlamydia trachomatis DUB1 (130 to 401 residues) assessed as inactivation rate constant (Kinact) using Ub-Rh110Gly as fluorogenic substrate incubated for 360 mins by Michaelis-Menten analysis
[11] = biological target: T2, Deubiquitinase and deneddylase Dub1 (Chlamydia trachomatis serovar L2 (strain ATCC VR-902B / DSM 19102 /434/Bu)); experiment: Inhibition of recombinant Chlamydia trachomatis DUB1 (130 to 401 residues) using Ub-Rh110Gly as fluorogenic substrate at 100 to 500 uM incubated for 20 to 240 mins by enzymatic analysis relative to control; details: dose 100-500 µM, time 20-240 min
[12] = biological target: T2, Deubiquitinase and deneddylase Dub1 (Chlamydia trachomatis serovar L2 (strain ATCC VR-902B / DSM 19102 /434/Bu)); experiment: Covalent inhibition of recombinant Chlamydia trachomatis DUB1 (130 to 401 residues) using Ub-Rh110Gly as fluorogenic substrate incubated for 10 to 360 mins by enzymatic analysis; details: time 10-360 min

| pIC50 [1] | SMILES | other results |
| --- | --- | --- |
| 3.76 | N#Cc1nccc(NC(=O)Cc2c[nH]c3ccccc23)n1 | – |
| 4.82 | N#Cc1nccc(C(=O)NCc2c[nH]c3cc(OCc4ccccc4)ccc23)n1 | – |
| 4.64 | N#Cc1nccc(C(=O)NCCc2c[nH]c3ccccc23)n1 | – |
| 5.12 | COc1ccc2c(CNC(=O)c3ccnc(C#N)n3)c[nH]c2c1 | – |
| 4.82 | Cn1cc(CNC(=O)c2ccnc(C#N)n2)c2ccccc21 | – |
| 5.21 | N#Cc1nccc(C(=O)NCc2c[nH]c3ccccc23)n1 | pIC50 [8]: 5.77; Ratio [9]: 22.4 M⁻¹ s⁻¹; Kinact [10]: 0.422 min⁻¹; pKi [6]: 3.50 |
| 5.24 | COc1ccc2[nH]cc(CNC(=O)c3ccnc(C#N)n3)c2c1 | – |
| 4.72 | N#Cc1nccc(C(=O)NCc2n[nH]c3ccccc23)n1 | inhibition [2]: 100% |

Second part, the molecule before the results:

| SMILES | pIC50 [1] | other results |
| --- | --- | --- |
| N#Cc1nccc(C(=O)NCc2c[nH]c3cccc(OCc4ccccc4)c23)n1 | 3.74 | – |
| N#Cc1nccc(C(=O)NCc2c[nH]c3ccc(OCc4ccccc4)cc23)n1 | 5.54 | Activity (HEp-2): Toxic; inhibition [2]: 100%; Activity (HeLa): Non-toxic |
| N#Cc1ncc(C(=O)NCc2ccc(C(=O)NCc3ccccc3)c3ccccc23)cn1 | 5.00 | inhibition [3]: Active; Complete Inhibition Was Not Achieved; inhibition [4]: Active |
| N#Cc1nc(C(=O)NCc2c[nH]c3ccccc23)co1 | – | pIC50 [5]: 5.51; IC50 (Chlamydia trachomatis): 32.2 µg/mL (≈ 121 µM); Activity (HEp-2): Toxic; pKi [6]: 3.93; Activity (HeLa): Toxic; pIC50 [7]: 4.80 |
| N#Cc1nccc(C(=O)Nc2n[nH]c3ccccc23)n1 | 4.64 | inhibition [2]: 100% |
| N#Cc1nccc(C(=O)Nc2cc[nH]n2)n1 | 4.64 | – |
| N#Cc1nccc(C(=O)NCc2c[nH]c3c(OCc4ccccc4)cccc23)n1 | 3.74 | – |
| N#Cc1nccc(C(=O)NCc2ccn(C(=O)Cc3ccccc3)n2)n1 | 4.64 | inhibition [11]: 100%; inhibition [12]: Active |
| N#Cc1ncc(NC(=O)Cc2c[nH]c3ccccc23)cn1 | 4.03 | – |
| COc1ccccc1CNC(=O)[C@H]1CC[C@H](CNC(=O)c2cnc(C#N)nc2)CC1 | 3.91 | – |
| N#Cc1ncc(C(=O)NCc2ccc(C(=O)NCc3ccccc3)cc2)cn1 | 4.57 | inhibition [12]: Active |
| N#Cc1ncc(C(=O)NCc2cccc(C(=O)NCc3ccccc3)c2)cn1 | 4.66 | – |
| N#Cc1ncc(C(=O)N2CCc3cc(C(=O)NCc4ccccc4)ccc3C2)cn1 | 4.11 | – |
| Cn1ccc(NC(=O)c2ccnc(C#N)n2)n1 | 4.33 | IC50 ([1]; read-out: pIC50 (converted)): 45.7 µM |
